According to paper PMC4259467, “Molecular Cloning, Characterization and Positively Selected Sites of the Glutathione S-Transferase Family from Locusta migratoria” (PLoS ONE, 2014):

How the values were obtained:
Assay in all cases: spectrophotometric GST assay, steady state
Assay type in all cases: biochemical
Details in all cases: co-substrate GSH; pH and temperature not given; read-out: K m ^CDNB
LmGSTT1 = biological target: T1, LmGSTT1 (Locusta migratoria, UniProt F4YUJ7)
T1 construct: full-length ORF in pET28a, E. coli BL21(DE3), His-tag Ni-NTA purified
T1 sequence (F4YUJ7 1-231): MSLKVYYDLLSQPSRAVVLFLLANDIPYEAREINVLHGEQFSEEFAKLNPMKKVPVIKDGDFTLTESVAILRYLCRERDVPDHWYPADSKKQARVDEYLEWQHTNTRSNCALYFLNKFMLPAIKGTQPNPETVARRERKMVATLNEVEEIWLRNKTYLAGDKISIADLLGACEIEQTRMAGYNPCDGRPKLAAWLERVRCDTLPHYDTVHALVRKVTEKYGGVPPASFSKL
Description: spectrophotometric GST assay, steady state on LmGSTT1

LmGSTO1 = biological target: T2, LmGSTO1 (Locusta migratoria, UniProt V9Q3Y6)
T2 construct: gene GSTo1; full-length ORF in pET28a, E. coli BL21(DE3), His-tag Ni-NTA purified
T2 sequence (V9Q3Y6 1-242): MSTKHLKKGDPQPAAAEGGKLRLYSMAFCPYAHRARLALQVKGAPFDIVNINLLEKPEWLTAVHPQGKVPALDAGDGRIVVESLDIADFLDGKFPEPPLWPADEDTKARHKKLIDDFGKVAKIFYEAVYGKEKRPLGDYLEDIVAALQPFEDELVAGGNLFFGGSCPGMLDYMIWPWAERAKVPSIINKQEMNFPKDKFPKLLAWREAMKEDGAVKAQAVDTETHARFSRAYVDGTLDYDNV
Description: spectrophotometric GST assay, steady state on LmGSTO1

LmGSTS10 = biological target: T3, LmGSTS10 (Locusta migratoria, UniProt V9Q3X5)
T3 construct: gene GSTs10; full-length ORF in pET28a, E. coli BL21(DE3), His-tag Ni-NTA purified
T3 sequence (V9Q3X5 1-204): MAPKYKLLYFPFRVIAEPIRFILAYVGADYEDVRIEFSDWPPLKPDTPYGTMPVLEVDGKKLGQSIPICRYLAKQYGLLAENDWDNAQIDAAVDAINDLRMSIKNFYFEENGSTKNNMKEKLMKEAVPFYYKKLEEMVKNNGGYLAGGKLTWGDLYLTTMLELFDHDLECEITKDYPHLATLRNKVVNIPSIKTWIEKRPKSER
Description: spectrophotometric GST assay, steady state on LmGSTS10

LmGSTS7 = biological target: T4, LmGSTS7 (Locusta migratoria, UniProt F4YUJ6)
T4 construct: full-length ORF in pET28a, E. coli BL21(DE3), His-tag Ni-NTA purified
T4 sequence (F4YUJ6 1-204): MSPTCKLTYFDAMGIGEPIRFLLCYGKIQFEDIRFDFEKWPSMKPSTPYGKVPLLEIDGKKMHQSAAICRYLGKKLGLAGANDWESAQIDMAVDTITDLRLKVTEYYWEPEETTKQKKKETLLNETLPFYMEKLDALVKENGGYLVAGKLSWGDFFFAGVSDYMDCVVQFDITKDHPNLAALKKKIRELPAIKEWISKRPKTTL
Description: spectrophotometric GST assay, steady state on LmGSTS7

LmGSTS8 = biological target: T5, LmGSTS8 (Locusta migratoria, UniProt V9Q487)
T5 construct: gene GSTs8; full-length ORF in pET28a, E. coli BL21(DE3), His-tag Ni-NTA purified
T5 sequence (V9Q487 1-204): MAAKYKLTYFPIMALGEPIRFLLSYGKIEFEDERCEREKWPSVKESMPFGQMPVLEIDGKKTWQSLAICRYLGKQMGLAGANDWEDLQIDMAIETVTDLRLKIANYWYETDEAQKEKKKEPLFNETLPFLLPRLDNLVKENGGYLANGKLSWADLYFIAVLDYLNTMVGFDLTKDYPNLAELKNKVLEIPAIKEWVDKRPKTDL
Description: spectrophotometric GST assay, steady state on LmGSTS8

LmGSTT2 = biological target: T6, LmGSTT2 (Locusta migratoria, UniProt V9Q331)
T6 construct: gene GSTt2; full-length ORF in pET28a, E. coli BL21(DE3), His-tag Ni-NTA purified
T6 sequence (V9Q331 1-231): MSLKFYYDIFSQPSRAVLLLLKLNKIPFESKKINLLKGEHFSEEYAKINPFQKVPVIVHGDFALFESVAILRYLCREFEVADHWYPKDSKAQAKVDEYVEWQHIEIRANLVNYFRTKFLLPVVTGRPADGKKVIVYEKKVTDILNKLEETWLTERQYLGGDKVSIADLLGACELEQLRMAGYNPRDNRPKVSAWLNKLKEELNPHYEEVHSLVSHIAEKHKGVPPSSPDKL
Description: spectrophotometric GST assay, steady state on LmGSTT2

LmGSTD4 = biological target: T7, LmGSTD4 (Locusta migratoria, UniProt V9Q2Q3)
T7 construct: gene GSTd4; full-length ORF in pET28a, E. coli BL21(DE3), His-tag Ni-NTA purified
T7 sequence (V9Q2Q3 1-218): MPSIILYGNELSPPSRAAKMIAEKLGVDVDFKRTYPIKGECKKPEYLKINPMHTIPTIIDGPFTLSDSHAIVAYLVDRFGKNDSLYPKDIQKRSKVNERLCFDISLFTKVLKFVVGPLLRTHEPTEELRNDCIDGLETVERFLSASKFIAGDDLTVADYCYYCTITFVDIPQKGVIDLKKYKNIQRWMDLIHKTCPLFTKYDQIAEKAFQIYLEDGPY
Description: spectrophotometric GST assay, steady state on LmGSTD4

LmGSTD7 = biological target: T8, LmGSTD7 (Locusta migratoria, UniProt V9Q328)
T8 construct: gene GSTd7; full-length ORF in pET28a, E. coli BL21(DE3), His-tag Ni-NTA purified
T8 sequence (V9Q328 1-233): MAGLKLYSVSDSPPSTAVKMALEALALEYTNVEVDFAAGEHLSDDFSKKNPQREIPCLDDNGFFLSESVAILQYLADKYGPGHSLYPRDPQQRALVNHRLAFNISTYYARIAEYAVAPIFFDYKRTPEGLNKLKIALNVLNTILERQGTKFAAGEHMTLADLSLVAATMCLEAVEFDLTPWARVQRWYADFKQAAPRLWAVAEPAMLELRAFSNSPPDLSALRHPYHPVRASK
Description: spectrophotometric GST assay, steady state on LmGSTD7

LmGSTZ1 = biological target: T9, LmGSTZ1 (Locusta migratoria, UniProt V9Q4A6)
T9 construct: gene GSTz1; full-length ORF in pET28a, E. coli BL21(DE3), His-tag Ni-NTA purified
T9 sequence (V9Q4A6 1-217): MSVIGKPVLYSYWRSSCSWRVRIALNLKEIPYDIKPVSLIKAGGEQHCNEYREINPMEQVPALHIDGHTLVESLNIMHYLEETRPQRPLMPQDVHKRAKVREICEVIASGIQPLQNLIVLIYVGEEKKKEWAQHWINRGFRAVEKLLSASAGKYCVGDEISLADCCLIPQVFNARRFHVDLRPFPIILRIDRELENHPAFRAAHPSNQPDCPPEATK
Description: spectrophotometric GST assay, steady state on LmGSTZ1

O=[N+]([O-])c1ccc(Cl)c([N+](=O)[O-])c1 [CDNB]
Km (LmGSTT1): 260 ± 14 µM | Km (LmGSTO1): 228 ± 45 µM | Km (LmGSTS10): 311 ± 18 µM | Km (LmGSTS7): 46 ± 1 µM | Km (LmGSTS8): 100 ± 6 µM | Km (LmGSTT2): 393 ± 49 µM | Km (LmGSTD4): 15 ± 2 µM | Km (LmGSTD7): 492 ± 39 µM | Km (LmGSTZ1): 452 ± 58 µM
